Laboratory results taken from patent publication US20250108038A1 (priority 2023, published 2025).
“And” between values parts separate entries of the source, which are not always exact repeats. Identical values can stand only once.

Tested on: Long Evans rats
Test: Behavioral satiety sequence (BSS)
Assay type: in vivo, Long Evans rat
Description: The Behavioural Satiety Sequence (BSS) is a technique used to evaluate physiological satiety. It is based on the expression of a sequence of behaviors including eating, grooming, locomotor activity, followed by resting, which are typically observed in rodents post-ingestion (Halford et al, 1998, Pharmacology Biochemistry and Behaviour. 61(2): 159-168). The BSS is a widely used model for determining the effects of novel pharmaceuticals on food intake and measures of satiety in rodents (Oliveira et al, 2011, Revista de Nutrição. 24(4) 619-628), and to discriminate the cause of reduced food intake following pharmacological manipulation. For example, treatments that may reduce food intake by non-specific mechanisms, such as immobility, malaise, and taste adulteration, will disrupt this sequence (Halford et al, 1998, Pharmacology Biochemistry and Behaviour. 61(2): 159-168).
Specifically, 12 male Long-Evans rats were food-deprived for 22 h with a 2 h feeding period each day. Rats were trained to consume daily food during the 2 h period over 25 days. The testing phase was initiated once the rats consistently consumed 16-18 g of food per day with ≤10% variance in amount of feed consumed. Feeding took place in designated individual boxes in a quiet room separate from the housing room. Continuous remote monitoring via video camera during feeding was used to assess the BSS. Food consumption was measured by weighing the total available food before and after the 2 h feeding window, correcting for spillage. Lorcaserin (1 mg/kg) was included as a reference control (Higgins et al, 2011, Neuropsychopharmacology. 37(5): 1177-1191). Subjects were tested using a repeated-measures, Latin square design with 2-3 days wash-out between treatment cycles.
On scheduled test days, animals were monitored remotely via video camera during the feeding access period. The occurrence of four mutually exclusive behaviors (eating/drinking, grooming, active, rest) were individually scored. Over the 2 h feeding period, behaviors were assessed every 30 seconds. Scores were compiled into 23 5 min timebins (timebin 24 was removed due to early removal of animals) and the frequency of each behavior within each timebin was calculated to determine a temporal frequency of each measure (Rodgers et al, 2010, Pharmacology Biochemistry and Behaviour. 97: 3-14). Percentage time was plotted for each behavioral sequence in each timebin to compare between treatment groups (Higgins et al, 2011, Neuropsychopharmacology. 37(5): 1177-1191).

[1] = Compound I-19 0.3 mg/kg, raw score per animal (LT-1 to LT-12)
[2] = Compound I-19 1 mg/kg i.p., AVG of the group
[3] = Compound I-19 1 mg/kg i.p., raw score per animal
[4] = Compound I-19 1 mg/kg, AVG of 12 animals

Question: Which results are given for `Clc1ccc(C2(OCC3OCCO3)c3ccccc3C3=NCCN32)cc1` (stereo not drawn) [Compound I-19]?
Answer: BSS scoring G (grooming), Time Bin 22 (105-110 TOTAL) [1]: 0 (11×) and 1; BSS scoring G (grooming), Time Bin 23 (110-115 TOTAL) [1]: 1 (4×) and 0 (7×) and 2; BSS scoring G (grooming), Time Bin 24 (115-120 TOTAL) [1]: 0 (7×) and 1 (5×); BSS scoring R (resting), Time Bin 19 (90-95 TOTAL) [1]: 1 (5×) and 0 (5×) and 2 and 6; BSS scoring R (resting), Time Bin 20 (95-100 TOTAL) [1]: 0 (6×) and 1 (3×) and 4 and 2 (2×); BSS scoring R (resting), Time Bin 21 (100-105 TOTAL) [1]: 0 (5×) and 1 (2×) and 3 (3×) and 2 and 10; BSS scoring R (resting), Time Bin 22 (105-110 TOTAL) [1]: 0 (6×) and 4 and 10 and 6 and 1 and 2 (2×); BSS scoring R (resting), Time Bin 23 (110-115 TOTAL) [1]: 0 (7×) and 3 and 6 (2×) and 2 (2×); BSS scoring R (resting), Time Bin 24 (115-120 TOTAL) [1]: 0 (7×) and 10 and 6 and 7 and 1 (2×); BSS scoring A (active), Time Bin 1 (0-5 TOTAL), AVG [2]: 0.11; BSS scoring A (active), Time Bin 2 (5-10 TOTAL), AVG [2]: 0.04; BSS scoring A (active), Time Bin 3 (10-15 TOTAL), AVG [2]: 0.07; BSS scoring A (active), Time Bin 4 (15-20 TOTAL), AVG [2]: 0.02; BSS scoring A (active), Time Bin 5 (20-25 TOTAL), AVG [2]: 0.10; BSS scoring A (active), Time Bin 6 (25-30 TOTAL), AVG [2]: 0.17; BSS scoring E (eating/drinking), Time Bin 1 (0-5 TOTAL), AVG [2]: 0.88; BSS scoring E (eating/drinking), Time Bin 2 (5-10 TOTAL), AVG [2]: 0.88; BSS scoring E (eating/drinking), Time Bin 3 (10-15 TOTAL), AVG [2]: 0.88; BSS scoring E (eating/drinking), Time Bin 4 (15-20 TOTAL), AVG [2]: 0.93; BSS scoring E (eating/drinking), Time Bin 5 (20-25 TOTAL), AVG [2]: 0.83; BSS scoring E (eating/drinking), Time Bin 6 (25-30 TOTAL), AVG [2]: 0.80; BSS scoring G (grooming), Time Bin 1 (0-5 TOTAL), AVG [2]: 0.02; BSS scoring G (grooming), Time Bin 2 (5-10 TOTAL), AVG [2]: 0.07; BSS scoring G (grooming), Time Bin 3 (10-15 TOTAL), AVG [2]: 0.03; BSS scoring G (grooming), Time Bin 4 (15-20 TOTAL), AVG [2]: 0.03; BSS scoring G (grooming), Time Bin 5 (20-25 TOTAL), AVG [2]: 0.03; BSS scoring G (grooming), Time Bin 6 (25-30 TOTAL), AVG [2]: 0.01; BSS scoring R (resting), Time Bin 1 (0-5 TOTAL), AVG [2]: 0.00; BSS scoring R (resting), Time Bin 2 (5-10 TOTAL), AVG [2]: 0.01; BSS scoring R (resting), Time Bin 3 (10-15 TOTAL), AVG [2]: 0.02; BSS scoring R (resting), Time Bin 4 (15-20 TOTAL), AVG [2]: 0.03; BSS scoring R (resting), Time Bin 5 (20-25 TOTAL), AVG [2]: 0.03; BSS scoring R (resting), Time Bin 6 (25-30 TOTAL), AVG [2]: 0.03; BSS scoring A (active), Time Bin 1 (0-5 TOTAL) [3]: 0 (3×) and 1 (5×) and 2 (4×); BSS scoring A (active), Time Bin 2 (5-10 TOTAL) [3]: 0 (8×) and 2 and 1 (3×); BSS scoring A (active), Time Bin 3 (10-15 TOTAL) [3]: 0 (4×) and 1 (8×); BSS scoring A (active), Time Bin 4 (15-20 TOTAL) [3]: 0 (10×) and 1 (2×); BSS scoring A (active), Time Bin 5 (20-25 TOTAL) [3]: 2 (2×) and 0 (5×) and 1 (4×) and 4; BSS scoring A (active), Time Bin 6 (25-30 TOTAL) [3]: 2 (3×) and 0 (5×) and 7 and 3 (2×) and 1; BSS scoring E (eating/drinking), Time Bin 1 (0-5 TOTAL) [3]: 10 (3×) and 9 (4×) and 7 and 8 (4×); BSS scoring E (eating/drinking), Time Bin 2 (5-10 TOTAL) [3]: 10 (4×) and 8 (4×) and 9 (3×) and 7; BSS scoring E (eating/drinking), Time Bin 3 (10-15 TOTAL) [3]: 10 (3×) and 9 (5×) and 8 (3×) and 7; BSS scoring E (eating/drinking), Time Bin 4 (15-20 TOTAL) [3]: 10 (5×) and 9 (6×) and 8; BSS scoring E (eating/drinking), Time Bin 5 (20-25 TOTAL) [3]: 7 (2×) and 10 (3×) and 9 (4×) and 8 (2×) and 4; BSS scoring E (eating/drinking), Time Bin 6 (25-30 TOTAL) [3]: 6 and 10 (5×) and 1 and 7 (2×) and 9 and 8 (2×); BSS scoring G (grooming), Time Bin 1 (0-5 TOTAL) [3]: 0 (10×) and 1 (2×); BSS scoring G (grooming), Time Bin 2 (5-10 TOTAL) [3]: 0 (6×) and 2 (2×) and 1 (4×); BSS scoring G (grooming), Time Bin 3 (10-15 TOTAL) [3]: 0 (9×) and 1 (2×) and 2; BSS scoring G (grooming), Time Bin 4 (15-20 TOTAL) [3]: 0 (9×) and 1 (3×); BSS scoring G (grooming), Time Bin 5 (20-25 TOTAL) [3]: 1 (4×) and 0 (8×); BSS scoring G (grooming), Time Bin 6 (25-30 TOTAL) [3]: 0 (11×) and 1; BSS scoring R (resting), Time Bin 1 (0-5 TOTAL) [3]: 0; BSS scoring R (resting), Time Bin 2 (5-10 TOTAL) [3]: 0 (11×) and 1; BSS scoring R (resting), Time Bin 3 (10-15 TOTAL) [3]: 0 (10×) and 1 (2×); BSS scoring R (resting), Time Bin 4 (15-20 TOTAL) [3]: 0 (9×) and 1 (3×); BSS scoring R (resting), Time Bin 5 (20-25 TOTAL) [3]: 0 (9×) and 1 (2×) and 2; BSS scoring R (resting), Time Bin 6 (25-30 TOTAL) [3]: 2 and 0 (10×) and 1; BSS scoring A (active), Time Bin 13 (60-65 TOTAL), AVG [4]: 0.09; BSS scoring A (active), Time Bin 14 (65-70 TOTAL), AVG [4]: 0.13; BSS scoring A (active), Time Bin 15 (70-75 TOTAL), AVG [4]: 0.17; BSS scoring A (active), Time Bin 16 (75-80 TOTAL), AVG [4]: 0.16; BSS scoring A (active), Time Bin 17 (80-85 TOTAL), AVG [4]: 0.18; BSS scoring A (active), Time Bin 18 (85-90 TOTAL), AVG [4]: 0.12; BSS scoring E (eating/drinking), Time Bin 13 (60-65 TOTAL), AVG [4]: 0.73; BSS scoring E (eating/drinking), Time Bin 14 (65-70 TOTAL), AVG [4]: 0.73; BSS scoring E (eating/drinking), Time Bin 15 (70-75 TOTAL), AVG [4]: 0.65; BSS scoring E (eating/drinking), Time Bin 16 (75-80 TOTAL), AVG [4]: 0.64; BSS scoring E (eating/drinking), Time Bin 17 (80-85 TOTAL), AVG [4]: 0.68; BSS scoring E (eating/drinking), Time Bin 18 (85-90 TOTAL), AVG [4]: 0.54; BSS scoring G (grooming), Time Bin 13 (60-65 TOTAL), AVG [4]: 0.06; BSS scoring G (grooming), Time Bin 14 (65-70 TOTAL), AVG [4]: 0.03; BSS scoring G (grooming), Time Bin 15 (70-75 TOTAL), AVG [4]: 0.05; BSS scoring G (grooming), Time Bin 16 (75-80 TOTAL), AVG [4]: 0.03; BSS scoring G (grooming), Time Bin 17 (80-85 TOTAL), AVG [4]: 0.01; BSS scoring G (grooming), Time Bin 18 (85-90 TOTAL), AVG [4]: 0.03
